What was measured:
[1] = French patents 2 141 697, 2 510 997, 2 510 998; cited from earlier work
[2] = system: cholinergic receptors; assay: Ligand properties for the cholinergic receptors (subsequent studies); format: binding
[3] = system: rotational behavior induced by intrastriatal pirenzepine (M1 central muscarinic cholinergic receptors); assay: Antagonism of rotational behavior induced by intrastriatal injection of pirenzepine in mice; format: in vivo, mice (female, Swiss, CD 1 printed as DC 1, Charles River); conditions: 3 mg/kg p.o., 4 hours before pirenzepine 1 μg into right striatum; 10 animals per dose; Student t test, *p < 0.05, **p < 0.01
Experimental: The compounds of formula (II) were also subjected to an in vivo study. Pirenzepine (PZ) is a specific antagonist of ligands for the M1 central muscarinic cholinergic receptors. The intrastriatal injection of PZ into mice induces rotational behavior. The antagonism of this behavior by the test products was studied. The products according to the invention are administered orally after solubilization in distilled water or suspension in a 5% solution of gum arabic. The control animals receive an injection of the pure solvent under the same conditions. The animals used are female mice (Swiss, DC 1, Charles River, France) with a body weight of between 25 and 30 grams. Pirenzepine is dissolved in a phosphate buffer; the pH of the solution is 6. The test products or their solvents are administered orally in a volume of 0.4 ml per 20 g of body weight, 4 hours before a direct injection of pirenzepine at a dose of 1 μg of product in 1 μl of solvent into the right striatum of the mouse, according to the method described by P. Worms et al. in Psychopharmacology 1987, 93, 489-493. The number of contralateral rotations (rotations in the opposite direction to the side injected) was counted for three 2-minute periods after the injection of pirenzepine: minutes 2 to 4, 8 to 10 and 13 to 15. Each treatment involves 10 animals per dose. For each treatment, the total number of rotations and the percentage antagonism compared with the control group are calculated. The results obtained with the products of formula (II) administered orally at a dose of 3 mg/kg of body weight are collated in Table 4.

[4] = biological target: T1, M1-type muscarinic cholinergic receptor (Rattus norvegicus, UniProt P08482); assay: Affinity for M1-type muscarinic cholinergic receptor: displacement of [3H]-pirenzepine on rat hippocampus homogenate; format: binding; conditions: for IC50: displacement of [3H]-PZ (1 nM), rat hippocampus homogenate, 2 h at 4° C., pH 7.40; for r = M2/M1 (ratio of the M2 and M1 IC50 values, selectivity towards the M1 receptor): ratio of IC50 3H-NMS (guinea-pig ileum) to IC50 3H-PZ (rat hippocampus)
T1 construct: on a homogenate of rat hippocampus; from tissue; host or cells: rat hippocampus homogenate
T1 sequence (P08482 1-460): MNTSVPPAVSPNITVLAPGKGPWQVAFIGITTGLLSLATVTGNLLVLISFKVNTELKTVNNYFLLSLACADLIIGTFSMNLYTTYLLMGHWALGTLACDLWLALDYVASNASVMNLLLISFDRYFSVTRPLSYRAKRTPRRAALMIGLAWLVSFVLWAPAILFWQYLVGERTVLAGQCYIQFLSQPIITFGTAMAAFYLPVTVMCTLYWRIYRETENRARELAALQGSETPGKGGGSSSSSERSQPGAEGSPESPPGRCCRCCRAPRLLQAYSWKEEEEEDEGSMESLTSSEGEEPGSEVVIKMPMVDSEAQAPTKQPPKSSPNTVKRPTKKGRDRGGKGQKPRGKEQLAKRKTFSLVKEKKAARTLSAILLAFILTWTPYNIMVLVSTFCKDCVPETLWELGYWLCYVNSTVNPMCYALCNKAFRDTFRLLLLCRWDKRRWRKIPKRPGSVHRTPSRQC
Description: (§1) In vitro, we studied the interaction of the products (II) with tritiated pirenzepine and tritiated N-methylscopolamine bound with a high affinity to membranes of rat hippocampus and membranes of smooth muscle of guinea-pig ileum, respectively.
A) Test for affinity for the M1 -type muscarinic cholinergic receptor
The interaction of molecules with the M1 -type muscarinic receptors was studied by in vitro measurement, on a homogenate of rat hippocampus, of the displacement of tritiated pirenzepine ([^3 H]-PZ) from its specific binding sites. Aliquots (100 μl) of a 5% (w/v) homogenate of rat hippocampus in an Na2 HPO4 buffer (50 mM, pH 7.40) are incubated for 2 h at 4° C. in the presence of [^3 H]-PZ (76 Ci/mmol; final concentration: 1 nM) and increasing concentrations of test products. The final volume is 2 ml. The reaction is stopped by centrifugation for 10 min at 50,000×g. After decantation and washing of the residues, the bound radioactivity is counted by liquid scintillation. The non-specific binding is determined in the presence of 10 μmol/l of atropine sulfate. The 50% inhibitory concentration (IC50) is determined graphically (Ref.: Watson J. D., Roeskoe W. R. and Yamamura H. I., Life Sci., 31, 2019-2029, 1982).
(§2) Table 3 indicates the affinities of the products of the invention for the M1 and M2 receptors. The results are expressed as 50 percent inhibitory concentrations (IC50), i.e. the concentration (in μM) which causes a 50% inhibition of the binding of the tritiated ligand to the membrane receptors. The IC50 for displacement of ^3 H-pirenzepine represents the affinity for the M1 receptor; the IC50 for displacement of ^3 H-NMS represents the affinity for the M2 receptor.
(§3) The Table also indicates, in the 3rd column, the ratio r of the M2 and M1 IC50 values, which expresses the selectivity of the products towards the M1 receptor.

[5] = biological target: T2, M2-type muscarinic cholinergic receptor (Cavia porcellus, UniProt H0VRN8); assay: Affinity for M2-type muscarinic cholinergic receptor: displacement of [3H]-N-methylscopolamine on guinea-pig ileum smooth muscle homogenate; format: binding; conditions: displacement of [3H]-NMS (0.3 nM), 20 min at 30° C., pH 7.5
T2 construct: on a homogenate of smooth muscle of guinea-pig ileum; from tissue; host or cells: guinea-pig ileum smooth muscle homogenate
T2 sequence (H0VRN8 1-466): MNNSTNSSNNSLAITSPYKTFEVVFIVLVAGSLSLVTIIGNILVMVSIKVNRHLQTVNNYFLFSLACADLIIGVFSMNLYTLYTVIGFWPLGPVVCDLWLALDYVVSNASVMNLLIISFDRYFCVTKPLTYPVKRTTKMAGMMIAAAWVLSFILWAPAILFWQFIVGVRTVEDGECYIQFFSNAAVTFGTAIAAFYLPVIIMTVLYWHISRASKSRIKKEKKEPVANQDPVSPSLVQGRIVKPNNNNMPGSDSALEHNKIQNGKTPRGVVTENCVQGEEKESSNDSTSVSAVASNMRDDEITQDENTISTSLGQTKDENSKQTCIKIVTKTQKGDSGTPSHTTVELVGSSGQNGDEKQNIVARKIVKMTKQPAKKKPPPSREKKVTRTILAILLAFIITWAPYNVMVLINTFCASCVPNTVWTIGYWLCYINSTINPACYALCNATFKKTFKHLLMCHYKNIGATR
Description: as §1
B) Test for affinity for the M2 -type muscarinic cholinergic receptor.
The interaction with the M2 -type muscarinic receptors was studied by in vitro measurement, on a homogenate of smooth muscle of guinea-pig ileum, of the displacement of tritiated N-methylscopolamine ([^3 H]-NMS) from its specific binding sites. Aliquots (50 μl) of a 0.625% (w/v) homogenate of smooth guinea-pig muscle in HEPES buffer (20 mM) containing NaCl (100 mM) and MgCl2 (10 mM) (final pH: 7.5) are incubated for 20 min at 30° C. in the presence of [^3 H]-NMS (85 Ci/mmol; final concentration: 0.3 nM) and increasing concentrations of test products. The final volume is 1 ml. The reaction is stopped by centrifugation for 5 min at 15,000×g. The non-specific binding is determined in the presence of 10 μmol-l of atropine sulfate (Ref.: Hammer R., Berrie C. P., Birdsall N. I. M., Burgen A. S. V. and Hulme E. C., Nature, 283, 90-92, 1980; Hulme E. C., Birdsall N. I. M., Burgen A. S. V. and Mettha P., Mol. Pharmacol., 14, 737-750, 1978).
as §2, §3

Which results are given for `Cc1cc(NCCN2CCOCC2)nnc1-c1ccccc1` [(I), 3-(2-morpholinoethylamino)-5-methyl-6-phenylpyridazine]?
antidepressant properties [1]: antidepressant properties of moderate intensity; properties as a ligand for the cholinergic receptors (in words) [2]: possesses valuable properties as a ligand for the cholinergic receptors

Which results are given for `Cc1cc(NCCN2CCOCC2)nnc1-c1ccccc1.O=C(O)C(=O)O.O=C(O)C(=O)O` [CM 30316, 3-(2-Morpholinoethylamino)-5-methyl-6-phenylpyridazine dioxalate]?
% inhibition of rotations [3]: -20%; IC50 [4]: 550 nM; r = M2/M1 (ratio of the M2 and M1 IC50 values, selectivity towards the M1 receptor) [4]: 182; IC50 [5]: 100000 nM

With `CCN(CC)CCNc1cc(C)c(-c2ccccc2)nn1` [SR 96150 A] as the compound, how does the “% inhibition of rotations” value [3] read?
The value was -49%.

What about the IC50 [4] of the same compound?
Its IC50 is 60 nM.

What about the “r = M2/M1 (ratio of the M2 and M1 IC50 values, selectivity towards the M1 receptor)” value [4] of the same compound?
The value was 47.

What about the IC50 [5] of the same compound?
The IC50 was 2800 nM.

Which results are given for `CCc1cc(NCCN2CCOCC2)nnc1-c1ccccc1` [SR 96169 A]?
% inhibition of rotations [3]: -46%; IC50 [4]: 3700 nM; r = M2/M1 (ratio of the M2 and M1 IC50 values, selectivity towards the M1 receptor) [4]: 8; IC50 [5]: 30000 nM

Which results are given for `CCc1cc(NCCN(CC)CC)nnc1-c1ccccc1` [SR 96180 A]?
% inhibition of rotations [3]: -38%; IC50 [4]: 70 nM; r = M2/M1 (ratio of the M2 and M1 IC50 values, selectivity towards the M1 receptor) [4]: 14; IC50 [5]: 1000 nM

For `CCCc1cc(NCCN2CCOCC2)nnc1-c1ccccc1` [SR 96186 A], which “% inhibition of rotations” value [3] is on record?
The value was -41%.

And the IC50 [4]?
The IC50 was 600 nM.

And the “r = M2/M1 (ratio of the M2 and M1 IC50 values, selectivity towards the M1 receptor)” value [4]?
Its value is 30.

What about the IC50 [5] of the same compound?
The IC50 was 18000 nM.

Which “% inhibition of rotations” value [3] does the source give for `CCCc1cc(NCCN(CC)CC)nnc1-c1ccccc1` [SR 96187 A] here?
The value was -37%.

What about the IC50 [4] of the same compound?
Its IC50 is 400 nM.

What about the “r = M2/M1 (ratio of the M2 and M1 IC50 values, selectivity towards the M1 receptor)” value [4] of the same compound?
The value was 9.

What about the IC50 [5] of the same compound?
Its IC50 is 3500 nM.

From US5081119A, “Use of 5-alkylpyridazine derivatives as drugs active on the cholinergic system” (priority 1989, dated 1992)
